Data published in patent US9056840B2, “Coelenterazine analogues and coelenteramide analogues” (JNC Corporation, priority 2010, dated 2015).
“Also recorded” adds a separate entry of the source.

Key:
apoaequorin [1] = target: T1, apoaequorin (Aequorea victoria, UniProt P07164); test: Calcium standard curve with semi-synthetic aequorins; type: biochemical; conditions: FIG. 3; Imax versus calcium concentration
T1 construct: purchased Chisso Corporation
Procedure: In 9 ml of 50 mM Tris-HCl (pH 7.6), 1 ml of 1 g/L calcium carbonate standard solution (manufactured by Wako Pure Chemicals) was diluted to prepare 10^−3 M calcium carbonate solution. One milliliter of the resulting 10^−3 M calcium carbonate solution was taken and added to 9 ml of 50 mM Tris-HCl (pH 7.6) to prepare 10^−4 M calcium carbonate solution. Next, 3 ml of the resulting 10^−4 M calcium carbonate solution was taken and added to 6 ml of 50 mM Tris-HCl (pH 7.6) to prepare […] calcium carbonate solution. One milliliter from the 10^−4 M calcium carbonate solution obtained was added to 9 ml of 50 mM Tris-HCl (pH 7.6) to prepare 10^−5 M calcium carbonate solution. Then, 3 ml of the resulting 10^−5 M calcium carbonate solution was taken and added to 6 ml of 50 mM Tris-HCl (pH 7.6) to prepare 3×10^−5 M calcium carbonate solution. A dilution series was prepared by successively repeating the procedures described above to give the 10^−3 M to 10^−8 M calcium standard solutions.
In 5 ml of 50 mM Tris-HCl (pH 7.6) containing 10 mM DTT and 30 mM EDTA, 5 mg of recombinant apoaequorin (manufactured by Chisso Corporation) was dissolved and 100 μg of coelenterazine analogue dissolved in ethanol in an amount of 1.2-fold equivalent was added to the solution. The mixture was allowed to stand at 4° C. overnight to convert into semi-synthetic aequorin. The resulting semi-synthetic aequorin was concentrated using Amicon Ultra-4 (manufactured by Millipore, Inc., molecular weight cut-off: 10,000) to remove an excessive of coelenterazine analogue. The mixture was then washed 3 times with 3 ml of 30 mM Tris-HCl (pH 7.6) containing 0.05 mM EDTA to give the solution of semi-synthetic aequorin containing 0.05 mM EDTA. This semi-synthetic aequorin solution (2.5 mg/ml) was diluted with 20 mM Tris-HCl (pH 7.6) containing 0.1% BSA (manufactured by Sigma), 0.01 mM EDTA and 150 mM NaCl.
The calcium standard solution prepared as above was dispensed into a 96-well microplate (Nunc #236108) at 50 μl/well and 10 μl of the diluted semi-synthetic aequorin solution was injected into 50 μl of various concentration of calcium standard solution. The luminescence intensity was measured for 60 seconds on a luminescence plate reader Centro LB960 (manufactured by Berthold) and expressed in terms of the maximum intensity (Imax) of luminescence. The luminescence intensity was measured on each semi-synthetic aequorin in the same procedures. Semi-synthetic aequorins for practically use were chosen by the maximum intensity (Imax) of luminescence and the calcium standard curve of semi-synthetic aequorin was prepared.

apoaequorin [2] = target: T1, apoaequorin; test: Fluorescence spectra of fluorescent proteins formed from semi-synthetic aequorins by Ca2+; type: physicochemical; conditions: for Maximum fluorescence wavelength λmax (nm) / Relative fluorescence intensity (rlu): fluorescent protein generated by calcium from semi-synthetic aequorin, excitation 330 nm, 25° C.; for fluorescence spectra of fluorescent proteins versus emission spectra of semi-synthetic aequorins, in words: same coelenterazine analogue
Procedure: The fluorescence spectra of novel fluorescent proteins formed by the Ca^2+-triggerd reaction from semi-synthetic aequorins in EXAMPLE 3 were measured at 25° C. in a quartz cell (10 mm light path length) using a Jasco FP-6500 spectrofluorometer (excitation wavelength: 330 nm, emission/excitation bandwidth: 3 nm; response: 0.5 sec, scan speed, 1000 nm/min). The fluorescence spectra measured were corrected.

[3] = target: T2, 19 kDa protein from Oplophorus luciferase (Oplophorus gracilirostris, UniProt Q9GV45); test: Substrate specificity and luminescence activity of the 19 kDa protein from Oplophorus luciferase; type: biochemical; conditions: measured for 60 seconds, coelenterazine = 100
T2 construct: made in house
Procedure: The 19 kDa protein from Oplophorus luciferase was purified by the method described in Inouye, S. and Sasaki, S., Protein Express. Purif. (2007) 56: 261-268 and provided for use.
(§1) After 1 μl of the 19 kDa protein (2.3 mg/ml) from Oplophorus luciferase containing 1 mM DTT was dissolved in 100 μl of 30 mM Tris-HCl (pH 7.6) containing 10 mM EDTA, 1 μl of a solution of coelenterazine or its analogue (1 μg/μl) in ethanol was added to the solution to start the luminescence reaction, and the luminescence activity was measured for 60 seconds on a luminometer luminescencer-PSN AB2200 (manufactured by Atto Co., Ltd.). The luminescence activity was determined by repeating the measurement described above 3 times and expressed in terms of the maximum luminescence intensity (Imax) of luminescence activity.

apoaequorin [4] = target: T1, apoaequorin; test: Luminescence patterns of semi-synthetic aequorins, half decay time; type: biochemical; conditions: for Half decay time: semi-synthetic aequorin, time in which luminescence becomes half of maximum, patterns measured for 60 seconds
Procedure: A solution of the regenerated semi-synthetic aequorin was diluted to 10-fold with 20 mM Tris-HCl (pH 7.6) containing 0.1% BSA (manufactured by Sigma, Inc.), 0.01 mM EDTA and 150 mM NaCl. The dilution was dispensed into a 96-well microplate (Nunc #236108) at 5 μl/well. The luminescence reaction was triggered by injecting 50 mM Tris-HCl (pH 7.6) containing 50 mM calcium chloride solution at 100 μl/well. The luminescence patterns for 60 seconds were measured to determine half decay time of the luminescence (a time period in which the luminescence becomes half of the maximum luminescence intensity).

Renilla luciferase = target: T3, Renilla luciferase (Renilla reniformis, UniProt P27652); test: Substrate specificity and luminescence activity of Renilla luciferase; type: biochemical; conditions: measured for 10 seconds, coelenterazine = 100
T3 construct: made in house
T3 sequence (P27652 1-311): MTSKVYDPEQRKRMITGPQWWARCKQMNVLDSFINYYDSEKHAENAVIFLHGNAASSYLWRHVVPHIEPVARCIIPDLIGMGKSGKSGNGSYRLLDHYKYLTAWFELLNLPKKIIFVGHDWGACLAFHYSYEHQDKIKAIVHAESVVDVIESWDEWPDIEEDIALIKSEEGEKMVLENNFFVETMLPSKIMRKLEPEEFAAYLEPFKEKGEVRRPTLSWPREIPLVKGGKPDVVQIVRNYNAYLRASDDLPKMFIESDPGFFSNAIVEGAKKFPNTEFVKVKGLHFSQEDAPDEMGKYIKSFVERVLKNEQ
Procedure: Renilla luciferase was purified by the method described in Inouye, S. & Shimomura, O. Biochem. Biophys. Res. Commun. (1997) 233: 349-353, and used for assay.
as §1, with “Renilla luciferase (0.45” for “the 19 kDa protein (2.3”, “mg/ml)” for “mg/ml) from Oplophorus luciferase containing 1 mM DTT”, “reaction. The” for “reaction, and the”, “10” for “60”, “measurement of luminescence activity” for “measurement”

apoaequorin [5] = target: T1, apoaequorin; test: Luminescence spectra of semi-synthetic aequorins; type: biochemical; conditions: semi-synthetic aequorin, calcium added, 22 to 25° C.
Procedure: In a quartz cell with light path length of 10 mm, 1 ml of 50 mM Tris-HCl (pH 7.6) containing 1 mM EDTA and 100 μl (100 μg protein) of a solution of the regenerated semi-synthetic aequorin were charged. Next, 100 μl of 50 mM Tris-HCl (pH 7.6) containing 0.1 ml of 10 mM calcium chloride solution was added thereto to start the luminescence reaction. The spectra were measured on a spectrofluorimeter (FP-6500, manufactured by Jasco Co., Ltd.) with the excitation light source turned off. The measurement conditions were bandwidth: 20 nm, response: 0.5 second, scan speed: 2000 nm/min and 22 to 25° C. The luminescence spectra measured were corrected.

Gaussia luciferase = test: Substrate specificity and luminescence activity of Gaussia luciferase; type: biochemical; conditions: measured for 10 seconds, coelenterazine = 100
Procedure: Gaussia luciferase was purified by the method described in Japanese Patent Application KOKAI No. 2008-099669 and provided for use. After 1 μl of Gaussia luciferase (0.024 mg/ml) was dissolved in 100 μl of phosphate buffered saline (manufactured by Sigma Inc.) containing 0.01% Tween 20 (manufactured by Sigma Inc.) and 10 mM EDTA, 1 μl of a solution of coelenterazine or its analogue (1 μg/μl) in ethanol was mixed with the solution to start the luminescence reaction. The luminescence activity was measured for 10 seconds on a luminometer luminescencer-PSN AB2200 (manufactured by Atto Co., Ltd.). The luminescence activity was determined by repeating the measurement described above 3 times and expressed in terms of the maximum luminescence intensity (Imax) of luminescence activity.

T1 sequence (P07164 other isoform, or with tags, fused parts or gaps with the stated changes): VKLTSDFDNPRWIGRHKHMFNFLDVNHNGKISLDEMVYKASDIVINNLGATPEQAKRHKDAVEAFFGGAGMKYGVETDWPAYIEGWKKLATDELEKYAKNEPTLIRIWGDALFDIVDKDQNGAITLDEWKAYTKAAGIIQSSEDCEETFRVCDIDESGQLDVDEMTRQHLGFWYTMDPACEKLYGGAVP
T2 sequence (Q9GV45 28-196): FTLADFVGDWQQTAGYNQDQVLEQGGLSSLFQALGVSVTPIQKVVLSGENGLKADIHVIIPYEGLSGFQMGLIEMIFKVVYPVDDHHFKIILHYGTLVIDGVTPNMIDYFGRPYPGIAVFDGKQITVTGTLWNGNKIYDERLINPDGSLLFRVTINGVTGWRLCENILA

| Compound | calcium standard curve with semi-synthetic aequorin, in words (apoaequorin [1]) | Maximum fluorescence wavelength λmax (nm) (apoaequorin [2]) | Relative fluorescence intensity (rlu) (apoaequorin [2]) | fluorescence spectra of fluorescent proteins versus emission spectra of semi-synthetic aequorins, in words (apoaequorin [2]) | Luminescence activity Imax (%) [3] | half decay time of luminescence compared to coelenterazine (native aequorin), in words (apoaequorin [4]) | Half decay time (apoaequorin [4]) | Luminescence activity Imax (%) (Renilla luciferase) | Maximum luminescence wavelength λmax (nm) (apoaequorin [5]) | Luminescence activity Imax (%) (Gaussia luciferase) |
| --- | --- | --- | --- | --- | --- | --- | --- | --- | --- | --- |
| O=c1c(Cc2ccc(O)cc2)nc2c(-c3ccccc3)[nH]c(-c3ccc(O)cc3)cn1-2 [Compound 3a, 2-(4-Hydroxybenzyl)-6-(4-hydroxyphenyl)-8-phenylimidazo[1,2-a]pyrazin-3(7H)-one] | calcium standard curve can be prepared | 501.5 nm | 118.1 rlu | different luminescence spectra and fluorescence spectra | 0.4% | markedly prolonged; also recorded: longer half decay time | 15.7 s | 0.00% | 494.0 nm | 0.00% |
| O=c1c(Cc2ccc(O)cc2)nc2c(/C=C/c3ccccc3)[nH]c(-c3ccc(O)cc3)cn1-2 [Compound 3b] | calcium standard curve can be prepared | 580.0 nm | 10.3 rlu | markedly different; also recorded: different luminescence spectra and fluorescence spectra | 0.07% | longer half decay time | 0.96 s | 0.00% | 447.0 nm | 0.01% |
| O=c1c(Cc2ccc(O)cc2)nc2c(-c3cccc4ccccc34)[nH]c(-c3ccc(O)cc3)cn1-2 [Compound 3d, 2-(4-Hydroxybenzyl)-6-(4-hydroxyphenyl)-8-(naphthalen-1-yl)imidazo[1,2-a]pyrazin-3(7H)-one] | calcium standard curve can be prepared | 482.5 nm | 61.8 rlu |  | 0.3% | longer half decay time | 1.10 s | 0.00% | 480.0 nm | 0.00% |
| O=c1c(Cc2ccc(O)cc2)nc2c(-c3ccc4ccccc4c3)[nH]c(-c3ccc(O)cc3)cn1-2 [Compound 3e, 2-(4-Hydroxybenzyl)-6-(4-hydroxyphenyl)-8-(naphthalen-2-yl)imidazo[1,2-a]pyrazin-3(7H)-one] | calcium standard curve can be prepared | 468.5 nm | 28.0 rlu | markedly different; also recorded: different luminescence spectra and fluorescence spectra | 0.07% | markedly prolonged; also recorded: longer half decay time | 3.42 s | 0.00% | 507.0 nm | 0.00% |
| O=c1c(Cc2ccc(O)cc2)nc2c(-c3cccs3)[nH]c(-c3ccc(O)cc3)cn1-2 [Compound 3f, 2-(4-Hydroxybenzyl)-6-(4-hydroxyphenyl)-8-(thiophen-2-yl)imidazo[1,2-α]pyrazin-3(7H)-one] | calcium standard curve can be prepared | 525.0 nm | 38.5 rlu | different luminescence spectra and fluorescence spectra | 0.1% | markedly prolonged; also recorded: longer half decay time | >60 s | 0.00% | 515.0 nm | 0.00% |
